Assay [1] deals with T1, Human PI3K alpha (Homo sapiens, UniProt P42336).
T1 construct: His (N); host or cells: SF9 insect cells (baculovirus)
The assay can be described thus: Human PI3K alpha enzyme assay (HTRF). In kind it is biochemical. The conditions noted are these: read-out: PI3Kalpha IC50. From the text: (§1) The catalytic subunits of PI3Ks are cloned into either pDEST8(p110 alpha) or pDEST10(p110beta, p110delta, and p110gamma) as N-terminal His tagged fusion proteins using the Gateway system (Invitrogen, catalog#11804-010 for pDEST8 and 11806-015 for pDEST10). The sequences are verified before recombinant protein expression using the Baculovirus Expression System with Gateway® Technology. The accession numbers for the subunits are as follows: • p110 alpha (GB:U79143) • p110beta (GB: S67334) • p110delta (GB: U86453) • p110gamma (GB: X83368) • The regulatory subunits of PI3Ks are cloned into pDEST8 as un-tagged protein using the Gateway system (Catalog#11804-010). The sequences are verified before recombinant protein expression using the Baculovirus Expression System with Gateway® Technology. The accession numbers for the subunits are as following: • p85 alpha (GB: BC030815) • p101(GB: AB028925) • VPS34 (accession number GB:BC033004) is cloned into pDEST20—Thombin as N-terminal GST tagged fusion proteins using the Gateway system (Invitrogen, catalog#11804-013). The sequences are verified before recombinant protein expression using the Baculovirus Expression System with Gateway® Technology.
(§2) For expression of the p110 complexes, the p85 (MOI of 4) is co-infected with p110 alpha, beta, and delta respectively (1MOI) in SF9 cells and harvested at 60 hours post co-infection. P110 gamma was infected at 1 MOI and harvested at 60 hours post infection.
(§3) For purification, PI3Ks are purified by Ni-NTA Agarose (Qiagen #30250) followed by Mono Q 10/100 GL (Ge Healthcare #17-5167-01). VPS34 is purified by Glutathione Sepharose 4 Fast Flow (GE Healthcare #17-5132-03) followed by HiTrap Q (GE Healthcare #17-1153-01).
1) Human PI3K alpha enzyme assay method
(§4) 0.5 uL compounds in DMSO are added to wells of a 384 well microtitre plate (Corning 3575). At room temperature: 10 ul PI3K reaction buffer (50 mM Hepes, 5 mM DTT, 150 mM NaCl, 10 mM beta-glycerophosphate, 10 mM MgCl2, 0.25 mM sodium cholate and 0.001% CHAPS, pH 7.00) containing ATP (25 uM, Promega) is added followed immediately by 10 ul PI3K reaction buffer containing di-C8 P1(4,5)P2 (3.5 uM, CellSignals) and PI3Kalpha (0.4875 nM, Millennium Protein Sciences Group) and the mixture is incubated with shaking at room temperature for 30 minutes. Then 5 ul PI3K stop mix (50 mM Hepes, 5 mM DTT, 150 mM NaCl, 0.01% Tween-20, 15 mM EDTA and 25 nM biotin-PI(3,4,5)P3 (Echelon) is added to quench the reaction followed immediately by addition of 5 ul HTRF detection mix (50 mM Hepes, 5 mM DTT, 150 mM NaCl, 0.01% Tween-20, 40 mM KF, 1.0 nM GST:GRP-1 PH domain (Millennium Protein Sciences Group), 15 nM Streptavidin-XL (CisBio) and 0.375 nM anti-GST Eu++ antibody (CisBio) at pH 7.00). The plates are then incubated for 1 hour at room temperature with shaking and then read on a BMG PheraStar Plus reader.
(§5) For the assay methods described above, test compound percent inhibition, at various concentrations, is calculated relative to control (DMSO and EDTA) treated samples. Compound concentration versus percent inhibition curves are fitted to generate IC50 values. One skilled in the art will appreciate that the values generated either as percentage inhibition at a single concentration or IC50 values are subject to experimental variation.

Assay [2] addresses T2, Human PI3K beta (Homo sapiens, UniProt P42338).
T2 construct: His (N); host or cells: SF9 insect cells (baculovirus)
Description: Human PI3K beta enzyme assay (HTRF). The conditions noted are these: read-out: PI3 Kbeta IC50. In kind it is biochemical.
Source text: as §1, §2, §3, §4
2) Human PI3K beta, delta and gamma isoforms are tested using the procedure described for PI3K alpha above but with the following changes: PI3K beta (5.25 nM), PI3K delta (0.75 nM) and PI3K gamma (5 nM). All isoforms supplied by Millennium Protein Science Group.
as §5

T2 sequence (P42338 whole entry): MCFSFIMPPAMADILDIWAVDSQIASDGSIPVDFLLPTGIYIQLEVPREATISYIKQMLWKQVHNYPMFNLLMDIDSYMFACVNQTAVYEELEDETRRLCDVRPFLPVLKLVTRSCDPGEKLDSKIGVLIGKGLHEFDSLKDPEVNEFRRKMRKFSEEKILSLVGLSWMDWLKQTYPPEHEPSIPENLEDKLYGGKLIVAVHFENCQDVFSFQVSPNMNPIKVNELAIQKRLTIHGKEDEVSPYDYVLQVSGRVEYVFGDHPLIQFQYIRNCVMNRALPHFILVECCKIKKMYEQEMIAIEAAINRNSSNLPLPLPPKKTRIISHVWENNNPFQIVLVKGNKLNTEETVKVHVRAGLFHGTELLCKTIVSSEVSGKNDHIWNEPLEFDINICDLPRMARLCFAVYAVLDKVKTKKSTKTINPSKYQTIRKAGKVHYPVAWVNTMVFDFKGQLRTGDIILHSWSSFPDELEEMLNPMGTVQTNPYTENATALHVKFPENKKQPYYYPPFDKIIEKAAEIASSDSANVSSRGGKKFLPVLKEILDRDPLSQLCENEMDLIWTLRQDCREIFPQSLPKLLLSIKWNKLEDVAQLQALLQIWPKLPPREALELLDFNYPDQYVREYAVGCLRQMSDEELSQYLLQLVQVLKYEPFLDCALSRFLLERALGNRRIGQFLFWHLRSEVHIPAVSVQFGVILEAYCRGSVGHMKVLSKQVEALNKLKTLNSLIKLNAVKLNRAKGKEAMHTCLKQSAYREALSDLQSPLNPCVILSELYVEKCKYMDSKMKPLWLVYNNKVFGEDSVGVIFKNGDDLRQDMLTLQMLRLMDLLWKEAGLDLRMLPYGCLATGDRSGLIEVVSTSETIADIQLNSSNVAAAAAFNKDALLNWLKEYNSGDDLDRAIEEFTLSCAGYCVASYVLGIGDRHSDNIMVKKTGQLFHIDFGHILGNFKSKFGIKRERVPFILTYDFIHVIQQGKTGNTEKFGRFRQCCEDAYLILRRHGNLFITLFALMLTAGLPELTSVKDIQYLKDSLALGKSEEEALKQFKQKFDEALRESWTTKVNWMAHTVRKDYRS
T2 sequence (P27986 whole entry partner): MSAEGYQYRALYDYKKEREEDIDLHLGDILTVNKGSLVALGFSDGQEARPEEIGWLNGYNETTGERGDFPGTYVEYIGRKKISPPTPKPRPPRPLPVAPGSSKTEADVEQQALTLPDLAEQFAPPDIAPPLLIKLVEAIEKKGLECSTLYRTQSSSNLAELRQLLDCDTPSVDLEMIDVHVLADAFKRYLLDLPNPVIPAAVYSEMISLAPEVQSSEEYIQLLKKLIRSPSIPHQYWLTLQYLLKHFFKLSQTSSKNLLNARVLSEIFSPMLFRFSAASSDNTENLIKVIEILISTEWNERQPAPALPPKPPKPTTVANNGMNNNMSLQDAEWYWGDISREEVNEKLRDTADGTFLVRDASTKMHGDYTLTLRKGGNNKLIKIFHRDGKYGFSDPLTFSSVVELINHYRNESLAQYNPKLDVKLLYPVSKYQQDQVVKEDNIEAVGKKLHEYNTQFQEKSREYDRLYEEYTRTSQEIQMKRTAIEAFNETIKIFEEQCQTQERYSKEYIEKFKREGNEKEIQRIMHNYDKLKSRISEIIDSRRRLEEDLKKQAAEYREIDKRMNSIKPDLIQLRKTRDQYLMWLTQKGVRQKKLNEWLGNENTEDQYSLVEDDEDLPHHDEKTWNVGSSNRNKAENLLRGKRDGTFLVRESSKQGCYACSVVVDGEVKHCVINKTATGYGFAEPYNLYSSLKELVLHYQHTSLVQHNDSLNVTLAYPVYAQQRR
T1 sequence (P42336 whole entry): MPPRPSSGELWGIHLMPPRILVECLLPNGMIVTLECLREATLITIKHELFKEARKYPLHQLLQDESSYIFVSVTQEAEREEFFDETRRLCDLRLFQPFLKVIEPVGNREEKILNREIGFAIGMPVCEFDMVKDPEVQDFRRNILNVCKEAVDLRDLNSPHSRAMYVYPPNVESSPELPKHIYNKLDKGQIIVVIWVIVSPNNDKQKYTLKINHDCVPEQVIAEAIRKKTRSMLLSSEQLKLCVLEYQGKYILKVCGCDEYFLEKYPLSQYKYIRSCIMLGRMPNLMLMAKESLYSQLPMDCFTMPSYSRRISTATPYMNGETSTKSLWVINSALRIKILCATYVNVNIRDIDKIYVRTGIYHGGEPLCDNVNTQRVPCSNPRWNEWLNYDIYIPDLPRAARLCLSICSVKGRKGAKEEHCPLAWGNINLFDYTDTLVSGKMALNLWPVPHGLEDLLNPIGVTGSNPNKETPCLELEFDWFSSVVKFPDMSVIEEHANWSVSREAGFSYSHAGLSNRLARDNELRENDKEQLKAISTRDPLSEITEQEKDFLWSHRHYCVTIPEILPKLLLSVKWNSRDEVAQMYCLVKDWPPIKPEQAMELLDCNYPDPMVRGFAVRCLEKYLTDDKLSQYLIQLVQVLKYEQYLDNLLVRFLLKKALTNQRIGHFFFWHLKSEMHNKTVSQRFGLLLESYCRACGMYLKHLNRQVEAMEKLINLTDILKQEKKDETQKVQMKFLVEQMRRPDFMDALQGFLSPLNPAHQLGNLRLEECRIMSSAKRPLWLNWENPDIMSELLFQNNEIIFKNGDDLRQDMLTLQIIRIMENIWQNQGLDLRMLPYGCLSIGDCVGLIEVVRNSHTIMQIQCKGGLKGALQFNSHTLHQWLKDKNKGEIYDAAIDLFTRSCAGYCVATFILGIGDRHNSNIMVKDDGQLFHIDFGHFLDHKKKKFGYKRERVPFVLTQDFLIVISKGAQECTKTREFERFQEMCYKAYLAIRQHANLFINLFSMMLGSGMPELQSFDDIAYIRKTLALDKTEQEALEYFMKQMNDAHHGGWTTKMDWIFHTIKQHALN
T1 sequence (P27986 whole entry partner): as the sequence (P27986 whole entry partner) above

Turning to `CC(=O)Nc1cc(-c2nc(NC(=O)c3ccccc3)c(-c3ncc[nH]3)s2)ccn1` [Compound 29, N-(2-(2-acetamidopyridin-4-yl)-5-(1H-imidazol-2-yl)thiazol-4-yl)benzamide], the IC50 is under 100 nM in assay [1] and over 1000 nM in assay [2].

For the molecule `O[C@H](c1ccc(Cl)cc1)c1cc(-c2ccnc(Cl)c2)sc1-c1nnc[nH]1` [Compound 30], the IC50 is 100 to 1000 nM in assay [1] and under 100 nM in assay [2].

As for `Cc1nn2ccc(CN(CCN)Cc3ccncc3)cc2c1-c1nc(Cc2ccc(Cl)cc2)c(-c2nnc[nH]2)s1` [Compound 31], the IC50 in assay [1] was 100 to 1000 nM; in assay [2] it was under 100 nM.

Consider `Cc1nn2ccc(CNCc3ccccc3)cc2c1-c1nc(Cc2ccc(Cl)cc2)c(-c2nnc[nH]2)s1` [Compound 32], for which the IC50 in assay [1] and in assay [2] was 100 to 1000 nM throughout.

In the case of `CC(C)NC(c1ccc(Cl)cc1)c1cc(-c2ccncc2)sc1-c1nnc[nH]1` (stereo not shown) [Compound 33], the values for the IC50 in assay [1] and in assay [2] were over 1000 nM and 100 to 1000 nM, respectively.

Regarding `Cc1noc(C)c1-c1cc(C(O)c2ccc(Cl)cc2)c(-c2nnc[nH]2)s1` (stereo not shown) [Compound 34], the IC50 in assay [1] was over 1000 nM; in assay [2] it was 100 to 1000 nM.

For `Cc1nn2ccc(CNC(=N)N)cc2c1-c1nc(Cc2ccc(Cl)cc2)c(-c2nnc[nH]2)s1` [Compound 35, N-({3-[4-(4-chlorobenzyl)-5-(4H-1,2,4-triazol-3-yl)-1,3-thiazol-2-yl]-2-methylpyrazolo[1,5-a]pyridin-5-yl}methyl)guanidine], the IC50 in assay [1] and in assay [2] was 100 to 1000 nM in each case.

Regarding `N#Cc1c(-c2ccncc2)sc(C(=O)O)c1Cc1ccc(Cl)cc1` [Compound 36], the results for the IC50 in assay [1] and in assay [2] were over 1000 nM and under 100 nM, respectively.

For the molecule `Fc1cc(-c2nc(Cc3ccc(Cl)cc3)c(-c3nnc[nH]3)s2)ccn1` [Compound 37], the IC50 is over 1000 nM in assay [1] and 100 to 1000 nM in assay [2].

On to `Cc1nn2ccc(CNCCCN)cc2c1-c1nc(Cc2ccc(Cl)cc2)c(-c2nnc[nH]2)s1` [Compound 38], for which the IC50 in assay [1] and in assay [2] was 100 to 1000 nM each time.

In the case of `Clc1ccc(Cc2nc(-c3ccnnc3)sc2-c2nnc[nH]2)cc1` [Compound 39], the IC50 in assay [1] was over 1000 nM; in assay [2], 100 to 1000 nM.

For `CC(=O)Nc1cc(-c2cc(C(O)c3ccc(Cl)cc3)c(-c3nnc[nH]3)s2)ccn1` (stereo not shown) [Compound 41], the IC50 in assay [1] and in assay [2] was under 100 nM each time.

In the case of `OC(c1ccc(Cl)cc1)c1cc(-c2ccnc3ccccc23)sc1-c1nnc[nH]1` (stereo not shown) [Compound 42], the IC50 in assay [1] and in assay [2] was 100 to 1000 nM throughout.

Regarding `Cc1cc(-c2cc([C@H](O)c3ccc(Cl)cc3)c(-c3nnc[nH]3)s2)ccn1` [Compound 43], the results for the IC50 in assay [1] and in assay [2] were over 1000 nM and under 100 nM, respectively.

For `CN(C)[C@H](c1ccc(Cl)cc1)c1cc(-c2ccncc2)sc1-c1nnc[nH]1` [Compound 44], the IC50 in assay [1] was over 1000 nM; in assay [2] it was under 100 nM.

In the case of `O[C@H](c1ccc(Cl)cc1)c1cc(-c2ccnc(F)c2)sc1-c1nnc[nH]1` [Compound 45], the IC50 in assay [1] was over 1000 nM; in assay [2], under 100 nM.

In the case of `Cc1noc(C)c1-c1nc(Cc2ccc(Cl)cc2)c(-c2nnc[nH]2)s1` [Compound 46], the values for the IC50 in assay [1] and in assay [2] were over 1000 nM and 100 to 1000 nM, respectively.

As for `Clc1ccc(Cc2nc(-c3ccnc(Cl)c3)sc2-c2nnc[nH]2)cc1` [Compound 47, 4-(4-chlorobenzyl)-2-(2-chloropyridin-4-yl)-5-(4H-1,2,4-triazol-3-yl)thiazole], the results for the IC50 in assay [1] and in assay [2] were over 1000 nM and 100 to 1000 nM, respectively.

On to `N#Cc1cc(-c2cc([C@@H](O)c3ccc(Cl)cc3)c(-c3nnc[nH]3)s2)ccn1` [Compound 48], for which the IC50 in assay [1] and in assay [2] was 100 to 1000 nM each time.

In the case of `OCCNc1cc(-c2cc(C(O)c3ccc(Cl)cc3)c(-c3nnc[nH]3)s2)ccn1` (stereo not shown) [Compound 49, 2-({4-[4-[(4-chlorophenyl)(hydroxy)methyl]-5-(4H-1,2,4-triazol-3-yl)-2-thienyl]pyridin-2-yl}amino)ethanol], the IC50 in assay [1] and in assay [2] was over 1000 nM each time.

The record behind these values is patent publication US8796268B2, “Heteroaryls and uses thereof” (Millennium Pharmaceuticals, Inc., priority 2010, dated 2014).
